DBAASP
Values after ≈ are worked out from the molar mass of the structure shown.

Legend:
Assay in all cases: ≥ marks a high value that may be exact or a test limit, other limits are often not marked, values filed in µg/mL are converted to µM
[1] = tested on: Escherichia coli ATCC 25922
[2] = tested on: Klebsiella pneumoniae ATCC 13883
[3] = tested on: Listeria monocytogenes ATCC 35152
[4] = tested on: Pseudomonas aeruginosa ATCC 27853
[5] = tested on: Staphylococcus aureus ATCC 25923
[6] = tested on: Listeria monocytogenes CMCC 54002
[7] = tested on: Salmonella typhimurium CMCC 50013
[8] = tested on: Shigella dysenteriae CMCC 51302
[9] = tested on: Staphylococcus aureus ATCC 29213
Streptococcus mutans = tested on: Streptococcus mutans
[10] = tested on: Streptococcus pyogenes ATCC 12344
Acinetobacter sp. = tested on: Acinetobacter sp.
[11] = tested on: Bacillus subtilis ATCC 6633
Escherichia coli = tested on: Escherichia coli
[12] = tested on: Pseudomonas aeruginosa ATCC 25668
[13] = tested on: Staphylococcus aureus ATCC 9144
[14] = tested on: Acinetobacter baumannii ATCC 19606
[15] = tested on: Acinetobacter baumannii ATCC BAA-1605
[16] = tested on: Acinetobacter baumannii ATCC BAA-747
[17] = tested on: Acinetobacter baumannii NR-13375
[18] = tested on: Acinetobacter baumannii NR-9667
[19] = tested on: Pseudomonas aeruginosa 1017
[20] = tested on: Pseudomonas aeruginosa 1109
[21] = tested on: Pseudomonas aeruginosa 1125
[22] = tested on: Pseudomonas aeruginosa 16011
[23] = tested on: Pseudomonas aeruginosa ATCC 10145
[24] = tested on: Pseudomonas aeruginosa ATCC 15442
[25] = tested on: Pseudomonas aeruginosa ATCC 25619
[26] = tested on: Pseudomonas aeruginosa ATCC 35032
[27] = tested on: Pseudomonas aeruginosa ATCC 9027
[28] = tested on: Pseudomonas aeruginosa ATCC 9721
[29] = tested on: Pseudomonas aeruginosa ATCC BAA-1744
[30] = tested on: Staphylococcus aureus ATCC 43300
[31] = tested on: Staphylococcus aureus ATCC 6538
[32] = tested on: Staphylococcus aureus ATCC BAA-44
[33] = tested on: Staphylococcus aureus NRS 19
[34] = tested on: Staphylococcus aureus NRS 1
[35] = tested on: Staphylococcus aureus NRS 72
[36] = tested on: Staphylococcus aureus RN4220
[37] = tested on: Staphylococcus aureus USA 100
[38] = tested on: Staphylococcus aureus USA 200
[39] = tested on: Staphylococcus aureus USA 300
[40] = tested on: Staphylococcus aureus VRSA1
[41] = tested on: Staphylococcus epidermidis NRS 101
Enterobacter cloacae = tested on: Enterobacter cloacae
Escherichia coli P4 = tested on: Escherichia coli P4
Klebsiella aerogenes = tested on: Klebsiella aerogenes
Klebsiella pneumoniae = tested on: Klebsiella pneumoniae
Pseudomonas aeruginosa = tested on: Pseudomonas aeruginosa
Serratia marcescens = tested on: Serratia marcescens

CC(C)C[C@H](NC(=O)[C@H](CCCN=C(N)N)NC(=O)[C@H](CCCCN)NC(=O)[C@@H](N)Cc1c[nH]c2ccccc12)C(=O)N[C@H](C(=O)N[C@@H](C)C(=O)N[C@@H](C)C(=O)N[C@@H](CO)C(=O)N[C@@H](C)C(=O)N[C@@H](CCCCN)C(=O)N[C@@H](CCCCN)C(=O)N[C@@H](CCCCN)C(N)=O)C(C)C [WKRLVAASAKKK]
MIC [1]: 10.8 µM (≈ 15 µg/mL)
MIC [2]: 18 µM (≈ 25 µg/mL)
MIC [3]: 10.8 µM (≈ 15 µg/mL)
MIC [4]: 14.4 µM (≈ 20 µg/mL)
MIC [5]: 7.22 µM (≈ 9.99 µg/mL)

CC(C)C[C@H](NC(=O)CN)C(=O)N[C@@H](Cc1ccccc1)C(=O)N[C@@H](CCCN=C(N)N)C(=O)N[C@@H](C)C(=O)N[C@@H](CC(C)C)C(=O)N[C@@H](CC(C)C)C(=O)N[C@@H](CCCN=C(N)N)C(=O)N[C@@H](CC(C)C)C(=O)N[C@@H](CC(C)C)C(=O)N[C@@H](CCCN=C(N)N)C(=O)N[C@@H](CO)C(=O)N[C@@H](CC(C)C)C(=O)N[C@@H](Cc1c[nH]c2ccccc12)C(=O)N[C@@H](CCCN=C(N)N)C(=O)N[C@@H](CC(C)C)C(=O)N[C@@H](CC(C)C)C(=O)N[C@@H](CC(C)C)C(=O)N[C@@H](CCCN=C(N)N)C(=O)N[C@@H](C)C(=O)O [GLFRALLRLLRSLWRLLLRA]
MIC [1]: > 64 µM
MIC [6]: ≥ 64 µM
MIC [7]: ≥ 64 µM
MIC [8]: ≥ 64 µM
MIC [9]: > 64 µM
MIC (Streptococcus mutans): ≥ 64 µM
MIC [10]: ≥ 64 µM

CC[C@H](C)[C@H](N)C(=O)N[C@@H](CCCCN)C(=O)N1CCC[C@H]1C(=O)N[C@@H](C)C(=O)NCC(=O)N[C@@H](CCCCN)C(=O)N[C@@H](CC(C)C)C(=O)N[C@@H](Cc1ccccc1)C(=O)N[C@@H](CCCCN)C(=O)N[C@@H](CC(C)C)C(=O)N[C@@H](Cc1ccccc1)C(=O)N[C@@H](CCCCN)C(N)=O [IKPAGKLFKLFK]
MIC (Acinetobacter sp.): ≥ 46.1 µM
MIC [11]: ≥ 368 µM
MIC (Escherichia coli): 368 µM (≈ 512 µg/mL)
MIC [12]: ≥ 368 µM
MIC [13]: ≥ 368 µM

CC[C@H](C)[C@H](NC(=O)[C@H](CCCN=C(N)N)NC(=O)[C@H](CCCN=C(N)N)NC(=O)[C@H](CC(C)C)NC(=O)[C@H](Cc1c[nH]c2ccccc12)NC(=O)[C@H](C)NC(=O)[C@H](CCCCN)NC(=O)[C@@H](NC(=O)[C@H](CCCN=C(N)N)NC(=O)[C@H](CCCN=C(N)N)NC(=O)[C@H](CC(C)C)NC(=O)[C@@H](N)Cc1c[nH]c2ccccc12)[C@@H](C)CC)C(=O)N[C@@H](CCCCN)C(=O)N[C@@H](C)C(=O)O [WLRRIKAWLRRIKA]
MIC [14]: 2 µM (≈ 3.73 µg/mL)
MIC [15]: 2 µM (≈ 3.73 µg/mL)
MIC [16]: 2 µM (≈ 3.73 µg/mL)
MIC [17]: 2 µM (≈ 3.73 µg/mL)
MIC [18]: 4 µM (≈ 7.47 µg/mL)
MIC [19]: ≥ 32 µM
MIC [20]: 4 µM (≈ 7.47 µg/mL)
MIC [21]: 8 µM (≈ 14.9 µg/mL)
MIC [22]: 16 µM (≈ 29.9 µg/mL)
MIC [23]: 8 µM (≈ 14.9 µg/mL)
MIC [24]: 8 µM (≈ 14.9 µg/mL)
MIC [25]: 8 µM (≈ 14.9 µg/mL)
MIC [4]: 8 µM (≈ 14.9 µg/mL)
MIC [26]: 8 µM (≈ 14.9 µg/mL)
MIC [27]: 4 µM (≈ 7.47 µg/mL)
MIC [28]: 8 µM (≈ 14.9 µg/mL)
MIC [29]: 8 µM (≈ 14.9 µg/mL)
MIC [30]: 4 µM (≈ 7.47 µg/mL)
MIC [31]: 2 µM (≈ 3.73 µg/mL)
MIC [32]: 4 µM (≈ 7.47 µg/mL)
MIC [33]: 4 µM (≈ 7.47 µg/mL)
MIC [34]: 2 µM (≈ 3.73 µg/mL)
MIC [35]: 4 µM (≈ 7.47 µg/mL)
MIC [36]: 4 µM (≈ 7.47 µg/mL)
MIC [37]: 2 µM (≈ 3.73 µg/mL)
MIC [38]: 4 µM (≈ 7.47 µg/mL)
MIC [39]: 4 µM (≈ 7.47 µg/mL)
MIC [40]: 4 µM (≈ 7.47 µg/mL)
MIC [41]: 2 µM (≈ 3.73 µg/mL)

CC[C@H](C)[C@H](NC(=O)[C@H](Cc1cnc[nH]1)NC(=O)[C@@H](NC(=O)[C@H](CCCN=C(N)N)NC(=O)[C@@H](N)C(C)C)[C@@H](C)CC)C(=O)N[C@@H](CO)C(=O)NCC(=O)N[C@@H](CO)C(=O)N[C@@H](CO)C(=O)N[C@@H](CC(C)C)C(=O)NCC(=O)N[C@@H](Cc1c[nH]c2ccccc12)C(=O)N[C@@H](CC(C)C)C(=O)N[C@H](C(=O)N[C@@H](CCC(N)=O)C(=O)N[C@@H](CC(C)C)C(=O)N[C@@H](Cc1ccccc1)C(=O)N[C@@H](CCCN=C(N)N)C(=O)N[C@@H](CCCCN)C(=O)N[C@@H](CCCN=C(N)N)C(=O)N[C@H](C(=O)N[C@@H](CCC(=O)O)C(=O)N[C@@H](CO)C(=O)N[C@@H](CC(C)C)C(=O)N[C@@H](CC(C)C)C(=O)N[C@@H](CCC(N)=O)C(=O)N[C@@H](CCCCN)C(=O)N[C@@H](CO)C(=O)O)[C@@H](C)CC)[C@@H](C)CC [VRIHISGSSLGWLIQLFRKRIESLLQKS]
MIC (Enterobacter cloacae): ≥ 78.4 µM
MIC [1]: 55.4 µM (≈ 181 µg/mL)
MIC (Escherichia coli P4): ≥ 55.4 µM
MIC (Escherichia coli): 78.4 µM (≈ 256 µg/mL)
MIC (Klebsiella aerogenes): ≥ 78.4 µM
MIC (Klebsiella pneumoniae): > 78.4 µM
MIC (Pseudomonas aeruginosa): > 78.4 µM
MIC (Serratia marcescens): ≥ 157 µM
MIC [9]: 55.4 µM (≈ 181 µg/mL)
